Read-outs that look alike come from different tables or passages of the source.
How the values were obtained:
human GLP-1R = target: T1, human GLP-1R (Homo sapiens, UniProt P43220); assay: Human GLP1R agonist activity, intracellular cAMP accumulation; format: cell-based; conditions: HEK-293T cells overexpressing human GLP-1R, 1 hr
T1 construct: HEK-293T cells overexpressing full-length human GLP-1R; FLAG (N); host or cells: HEK-293T
How it was run: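 cAMP accumulation is measured by HTRF after a 1 hr, room-temperature, dark exposure of thawed cells (4×10^5 cells/mL in Krebs Ringer buffer) to compound. Activity is scaled between DMSO alone as 0% and 1 nm GLP-1 as 100%.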

C57BL/6J mice = assay: Oral glucose tolerance test (OGTT); format: in vivo; conditions: 3 nmol/kg s.c., 24 hours before glucose loading
How it was run: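 Peptide or vehicle given s.c. at 0.1, 0.3, 3 or 10 nmol/kg (peptide-dependent), 24 h before oral 50% dextrose at 5 ml/kg unless stated otherwise. Blood glucose read at 0, 15, 30 and 60 min. % inhibition = (1−(AUC cpd−AUC naïve)/(AUC veh−AUC naïve))×100.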

[1] = Solubility in phosphate buffer pH 7.4
How it was run: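 Solubility at pH 7.4 determined by stepwise addition of 200 mM phosphate buffer in 100 μL increments to 3 mg peptide, mixing briefly each time, until no insoluble material remained, then measured by liquid chromatography.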

[2] = Human GLP1R cAMP EC50, HEK293T (nM)
[3] = pH 7.4, aqueous buffer, pH 7.4 Phosphate Buffer - Solubility, 200 mM Phosphate buffer pH 7.4
[4] = pH 7.4, solubility in phosphate buffer at pH 7.4, 200 mM phosphate buffer pH 7.4
[5] = read-out: Human GLP1R cAMP EC50, HEK293T

T1 sequence (P43220 24-463): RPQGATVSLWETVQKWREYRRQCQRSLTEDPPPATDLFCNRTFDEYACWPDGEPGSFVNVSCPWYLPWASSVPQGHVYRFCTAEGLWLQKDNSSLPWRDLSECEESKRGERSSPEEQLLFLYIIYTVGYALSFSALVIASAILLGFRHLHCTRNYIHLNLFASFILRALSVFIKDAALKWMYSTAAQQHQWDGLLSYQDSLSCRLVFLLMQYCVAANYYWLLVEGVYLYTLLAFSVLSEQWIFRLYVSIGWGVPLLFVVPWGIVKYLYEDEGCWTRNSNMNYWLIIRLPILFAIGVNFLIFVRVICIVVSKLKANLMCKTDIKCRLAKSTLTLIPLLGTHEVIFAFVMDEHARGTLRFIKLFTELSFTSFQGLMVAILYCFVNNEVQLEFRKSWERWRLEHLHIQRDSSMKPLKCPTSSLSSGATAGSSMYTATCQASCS

SMILES | EC50 (human GLP-1R; [2]) [nM] | Oral Glucose Tolerance Test Percent decrease in blood glucose AUC (%) over 60 mins (C57BL/6J mice) | solubility [1, 3] [mg/mL] | solubility [1, 4] [mg/mL] | EC50 (human GLP-1R; [5]) [nM] | solubility ([1]; pH 7.4) [mg/mL] | solubility ([1]; pH 7.4, aqueous buffer) [mg/mL]
CC[C@H](C)[C@H](NC(=O)[C@H](Cc1ccccc1)NC(=O)[C@@H](NC(=O)CNC(=O)[C@H](CCC(=O)O)NC(=O)C(C)(C)NC(=O)[C@H](Cc1ccc(O)cc1)NC)[C@@H](C)O)C(=O)N[C@@H](CO)C(=O)N[C@@H](CC(=O)O)C(=O)N[C@@H](Cc1ccc(O)cc1)C(=O)N[C@@H](CO)C(=O)N[C@H](C(=O)NC(C)(C)C(=O)N[C@@H](CCCCNC(=O)CNC(=O)CNC(=O)CNC(=O)CNC(=O)CNC(=O)CCCCCCCCCCCCCCCCC(=O)O)C(=O)N[C@@H](CC(=O)O)C(=O)N[C@@H](CCCNC(=N)N)C(=O)NC(C)(C)C(=O)N[C@@H](C)C(=O)N[C@@H](CCC(N)=O)C(=O)NC(C)(C)C(=O)N[C@@H](CC(=O)O)C(=O)N[C@@H](Cc1ccccc1)C(=O)N[C@H](C(=O)N[C@@H](CC(N)=O)C(=O)N[C@@H](Cc1c[nH]c2ccccc12)C(=O)N[C@@H](CC(C)C)C(=O)N[C@@H](CC(C)C)C(=O)N[C@@H](C)C(=O)N[C@@H](CCC(N)=O)C(=O)N[C@@H](CO)C(=O)N1CCC[C@H]1C(=O)N[C@@H](CO)C(=O)N[C@@H](CO)C(=O)NCC(=O)N[C@@H](C)C(=O)N1CCC[C@H]1C(=O)N1CCC[C@H]1C(=O)N1CCC[C@H]1C(=O)N[C@@H](CO)C(N)=O)C(C)C)[C@@H](C)CC [Compound 48] | 87.1 | 87% (3 nmol/kg) | ≥ 30 | ≥ 15 |  |  | 
CC[C@H](C)[C@H](NC(=O)[C@H](CO)NC(=O)[C@H](Cc1ccc(O)cc1)NC(=O)[C@H](CC(=O)O)NC(=O)[C@H](CO)NC(=O)[C@@H](NC(=O)[C@H](Cc1ccccc1)NC(=O)[C@@H](NC(=O)CNC(=O)[C@H](CCC(=O)O)NC(=O)C(C)(C)NC(=O)[C@H](Cc1ccc(O)cc1)NC)[C@@H](C)O)[C@@H](C)CC)C(=O)N[C@@H](C)C(=O)N[C@@H](CC(C)C)C(=O)N[C@@H](CC(=O)O)C(=O)N[C@@H](CCCNC(=N)N)C(=O)N[C@@H](CCCCNC(=O)CNC(=O)CNC(=O)CNC(=O)CNC(=O)CNC(=O)CCCCCCCCCCCCCCCCC(=O)O)C(=O)N[C@@H](C)C(=O)N[C@@H](CCC(N)=O)C(=O)NC(C)(C)C(=O)N[C@@H](CC(=O)O)C(=O)N[C@@H](Cc1ccccc1)C(=O)N[C@H](C(=O)N[C@@H](CC(N)=O)C(=O)N[C@@H](Cc1c[nH]c2ccccc12)C(=O)N[C@@H](CC(C)C)C(=O)N[C@@H](CC(C)C)C(=O)N[C@@H](C)C(=O)N[C@@H](CCC(N)=O)C(=O)N[C@@H](CO)C(=O)N1CCC[C@H]1C(=O)N[C@@H](CO)C(=O)N[C@@H](CO)C(=O)NCC(=O)N[C@@H](C)C(=O)N1CCC[C@H]1C(=O)N1CCC[C@H]1C(=O)N1CCC[C@H]1C(=O)N[C@@H](CO)C(=O)O)C(C)C [Compound 52] | 17 | 65% (3 nmol/kg) | ≥ 30 | ≥ 15 |  |  | 
CC[C@H](C)[C@H](NC(=O)[C@H](Cc1ccccc1)NC(=O)[C@@H](NC(=O)CNC(=O)[C@H](CCC(=O)O)NC(=O)C(C)(C)NC(=O)[C@H](Cc1ccc(O)cc1)NC)[C@@H](C)O)C(=O)N[C@@H](CO)C(=O)N[C@@H](CC(=O)O)C(=O)N[C@@H](Cc1ccc(O)cc1)C(=O)N[C@@H](CO)C(=O)N[C@H](C(=O)NC(C)(C)C(=O)N[C@@H](CCCCNC(=O)CNC(=O)CNC(=O)CNC(=O)CNC(=O)CNC(=O)CCCCCCCCCCCCCCCCC(=O)O)C(=O)N[C@@H](CC(=O)O)C(=O)N[C@@H](CCCNC(=N)N)C(=O)NC(C)(C)C(=O)N[C@@H](C)C(=O)N[C@@H](CCC(N)=O)C(=O)NC(C)(C)C(=O)N[C@@H](CC(=O)O)C(=O)N[C@@H](Cc1ccccc1)C(=O)N[C@H](C(=O)N[C@@H](CC(N)=O)C(=O)N[C@@H](Cc1c[nH]c2ccccc12)C(=O)N[C@@H](CC(C)C)C(=O)N[C@@H](CC(C)C)C(=O)N[C@@H](C)C(=O)N[C@@H](CCC(N)=O)C(=O)N[C@@H](CO)C(=O)NCC(=O)O)C(C)C)[C@@H](C)CC [Compound 53] |  | 59% (3 nmol/kg) |  |  | 47.9 | ≥ 15 | ≥ 30
CC[C@H](C)[C@H](NC(=O)[C@H](Cc1ccccc1)NC(=O)[C@@H](NC(=O)CNC(=O)[C@H](CCC(=O)O)NC(=O)C(C)(C)NC(=O)[C@H](Cc1ccc(O)cc1)NC)[C@@H](C)O)C(=O)N[C@@H](CO)C(=O)N[C@@H](CC(=O)O)C(=O)N[C@@H](Cc1ccc(O)cc1)C(=O)N[C@@H](CO)C(=O)N[C@H](C(=O)NC(C)(C)C(=O)N[C@@H](CC(C)C)C(=O)N[C@@H](CC(=O)O)C(=O)N[C@@H](CO)C(=O)N[C@@H](CCCCNC(=O)CNC(=O)CNC(=O)CNC(=O)CNC(=O)CNC(=O)CNC(=O)CCCCCCCCCCCCCCCCC(=O)O)C(=O)N[C@@H](C)C(=O)N[C@@H](CCC(N)=O)C(=O)NC(C)(C)C(=O)N[C@@H](CC(=O)O)C(=O)N[C@@H](Cc1ccccc1)C(=O)N[C@H](C(=O)N[C@@H](CC(N)=O)C(=O)N[C@@H](Cc1c[nH]c2ccccc12)C(=O)N[C@@H](CC(C)C)C(=O)N[C@@H](CC(C)C)C(=O)N[C@@H](C)C(=O)N[C@@H](CCC(N)=O)C(=O)N[C@@H](CCCNC(=N)N)C(=O)NCC(=O)O)C(C)C)[C@@H](C)CC [Compound 64] |  | 53% (3 nmol/kg) |  |  | 110 | ≥ 15 | ≥ 30
CC[C@H](C)[C@H](NC(=O)[C@H](CO)NC(=O)[C@H](Cc1ccc(O)cc1)NC(=O)[C@H](CC(=O)O)NC(=O)[C@H](CO)NC(=O)[C@@H](NC(=O)[C@H](Cc1ccccc1)NC(=O)[C@@H](NC(=O)CNC(=O)[C@H](CCC(=O)O)NC(=O)C(C)(C)NC(=O)[C@H](Cc1ccc(O)cc1)NC)[C@@H](C)O)[C@@H](C)CC)C(=O)N[C@@H](C)C(=O)N[C@@H](CCCCNC(=O)CNC(=O)CNC(=O)CNC(=O)CNC(=O)CNC(=O)CCCCCCCCCCCCCCCCC(=O)O)C(=O)N[C@@H](CC(=O)O)C(=O)N[C@@H](CCCNC(=N)N)C(=O)NC(C)(C)C(=O)N[C@@H](C)C(=O)N[C@@H](CCC(N)=O)C(=O)NC(C)(C)C(=O)N[C@@H](CC(=O)O)C(=O)N[C@@H](Cc1ccccc1)C(=O)N[C@H](C(=O)N[C@@H](CC(N)=O)C(=O)N[C@@H](Cc1c[nH]c2ccccc12)C(=O)N[C@@H](CC(C)C)C(=O)N[C@@H](CC(C)C)C(=O)N[C@@H](C)C(=O)N[C@@H](CCC(N)=O)C(=O)N[C@@H](CCCCNC(C)=O)C(=O)NCC(=O)O)C(C)C [Compound 81] |  | 66% (3 nmol/kg) |  |  | 33.9 | ≥ 15 | ≥ 30
CC[C@H](C)[C@H](NC(=O)[C@H](CO)NC(=O)[C@H](Cc1ccc(O)cc1)NC(=O)[C@H](CC(=O)O)NC(=O)[C@H](CO)NC(=O)[C@@H](NC(=O)[C@H](Cc1ccccc1)NC(=O)[C@@H](NC(=O)CNC(=O)[C@H](CCC(=O)O)NC(=O)C(C)(C)NC(=O)[C@H](Cc1ccc(O)cc1)NC)[C@@H](C)O)[C@@H](C)CC)C(=O)N[C@@H](C)C(=O)N[C@@H](CCCCNC(=O)CNC(=O)CNC(=O)CNC(=O)CNC(=O)CNC(=O)CCCCCCCCCCCCCCCCC(=O)O)C(=O)N[C@@H](CC(=O)O)C(=O)N[C@@H](CCCNC(=N)N)C(=O)NC(C)(C)C(=O)N[C@@H](C)C(=O)N[C@@H](CCC(N)=O)C(=O)NC(C)(C)C(=O)N[C@@H](CC(=O)O)C(=O)N[C@@H](Cc1ccccc1)C(=O)N[C@H](C(=O)N[C@@H](CC(N)=O)C(=O)N[C@@H](Cc1c[nH]c2ccccc12)C(=O)N[C@@H](CC(C)C)C(=O)N[C@@H](CC(C)C)C(=O)N[C@@H](C)C(=O)N[C@@H](CCC(N)=O)C(=O)N[C@@H](CCC(N)=O)C(=O)NCC(=O)O)C(C)C [Compound 82] |  | 72% (3 nmol/kg) |  |  | 17.4 | ≥ 15 | ≥ 30
CC[C@H](C)[C@H](NC(=O)[C@H](Cc1ccccc1)NC(=O)[C@@H](NC(=O)CNC(=O)[C@H](CCC(=O)O)NC(=O)C(C)(C)NC(=O)[C@H](Cc1ccc(O)cc1)NC)[C@@H](C)O)C(=O)N[C@@H](CO)C(=O)N[C@@H](CC(=O)O)C(=O)N[C@@H](Cc1ccc(O)cc1)C(=O)N[C@@H](CO)C(=O)N[C@H](C(=O)NC(C)(C)C(=O)N[C@@H](CCCCNC(=O)CNC(=O)CNC(=O)CNC(=O)CNC(=O)CNC(=O)CCCCCCCCCCCCCCCCC(=O)O)C(=O)N[C@@H](CC(=O)O)C(=O)N[C@@H](CCCNC(=N)N)C(=O)NC(C)(C)C(=O)N[C@@H](C)C(=O)N[C@@H](CCC(N)=O)C(=O)NC(C)(C)C(=O)N[C@@H](CC(=O)O)C(=O)N[C@@H](Cc1ccccc1)C(=O)N[C@H](C(=O)N[C@@H](CC(N)=O)C(=O)N[C@@H](Cc1c[nH]c2ccccc12)C(=O)N[C@@H](CC(C)C)C(=O)N[C@@H](CC(C)C)C(=O)N[C@@H](C)C(=O)N[C@@H](CCC(N)=O)C(=O)N[C@@H](CO)C(=O)N1CCC[C@H]1C(=O)NCC(=O)O)C(C)C)[C@@H](C)CC [Compound 83] |  | 68% (3 nmol/kg) |  |  | 66.1 | ≥ 15 | ≥ 30

— patent US20230143604A1, “QW DOSING OF GIP RECEPTOR AGONIST PEPTIDE COMPOUNDS AND USES THEREOF” (TAKEDA PHARMACEUTICAL COMPANY LIMITED, priority 2020, published 2023)
